Reference: patent publication US9320809B2, “Nanoparticle comprising hydrophobic drug conjugated to cationic polymer and hydrophilic drug conjugated to anionic polymer” (University-Industry Foundation, Yonsei University, priority 2014, dated 2016)

System: Bax, Bcl-2, Bcl-xL mRNA in HuCCT1 and SCK cells
Experiment: Expression level of apoptosis-related genes (real-time PCR)
Format: cell-based
Conditions: same amount of drugs; for change of apoptosis gene expression according to the level of expression of CD44: HuCCT1 versus SCK
Protocol: The level of expression of an apoptosis gene of each material was compared and analyzed under the same condition as Experimental Example 4.
Specifically, 1×10^6 HuCCT1 and SCK cells were treated with GEM, PTX, GEM+PTX, HA-GEM, PLL-PTX, HA-GEM, and MDNCs for 4 hours based on the same amount of GEM and PTX. Then, the cells were incubated in a new medium for 24 hours, and thereby the cells were obtained. Total amount of RNA with respect to all the obtained cells was obtained with an RNeasy plus mini kit (QIAGEN Gmbh), and then a concentration of total RNA was obtained using a biophotometer. Thereafter, 2 μg of complementary DNA (cDNA) with respect to the total RNA was synthesized through a high capacity RNA-to-cDNA kit (Applied Biosystems; Thermo Fisher Scientific Inc.). Quantitative analysis of the synthesized cDNA was performed using a QuantiMix SYBR Kit (PKT, Korea) in a real-time PCR system (LightCycler 480 System, HNS Bio). The quantitative analysis was performed through a reacting solution (20 μl) including cDNA (1 μl), SYBR Green mixture (10 μl), each of forward primer (1 μl) and reverse primer (1 μl), and DEPC water (7 μl). The used primers were as follows: […]
PCR was performed at 95° C. for 5 minutes, and then genes were amplified for 45 cycles (10 seconds at 95° C., 10 seconds at 60° C., and 10 seconds at 72° C.). A relative amount of each mRNA was analyzed using a Ct method (2-ΔΔCt) based on GAPDH of each cell, from data obtained as described above.

Row | SMILES | change of apoptosis gene expression according to the level of expression of CD44 | effects on apoptosis gene expression compared with MDNCs
1 | CC(=O)O[C@H]1C(=O)[C@@]2(C)[C@H]([C@H](OC(=O)c3ccccc3)[C@]3(O)C[C@H](OC(=O)[C@H](O)[C@@H](NC(=O)c4ccccc4)c4ccccc4)C(C)=C1C3(C)C)[C@]1(OC(C)=O)CO[C@@H]1C[C@@H]2O [PTX, paclitaxel] | few changes | lower than those of the MDNCs
2 | Nc1ccn([C@@H]2O[C@H](CO)[C@@H](O)C2(F)F)c(=O)n1 [GEM, gemcitabine] | few changes | lower than those of the MDNCs
